Data as given in ChEMBL document CHEMBL4325908, “Ligand-based design, synthesis and biological evaluation of xanthine derivatives as LSD1/KDM1A inhibitors” (Eur J Med Chem, 2019).
pIC50: −log10 of the molar value.

How the values were obtained:
[1] = molecular target: Lysine-specific histone demethylase 1A (Homo sapiens, UniProt O60341); assay: Inhibition of full length recombinant LSD1 (unknown origin) expressed in Escherichia coli BL21(DE3) using H3K4me2 as substrate after 30 mins in presence of FAD by amplex red reagent based fluorescence assay
[2] = system: MGC-803; assay: Antiproliferative activity against human MGC803 cells after 72 hrs by MTT assay; conditions: MGC-803, 72 h
[3] = system: MGC-803; assay: Antiproliferative activity against LSD1 knock down human MGC803 cells after 72 hrs by MTT assay; assay type: functional, cell-based; conditions: MGC-803, 72 h
[4] = system: MGC-803; assay: Ratio of IC50 for LSD1 knock down human MGC803 cells to IC50 for human MGC803 cells; assay type: functional
[5] = molecular target: Bromodomain-containing protein 4 (Homo sapiens) (UniProt O60885); assay: Inhibition of BRD4 (unknown origin) at 25 uM relative to control
[6] = molecular target: Indoleamine 2,3-dioxygenase 1 (Homo sapiens, UniProt P14902); assay: Inhibition of IDO1 (unknown origin)
[7] = molecular target: T1, MAO-A (Homo sapiens, UniProt P21397); assay: Inhibition of full length recombinant FLAG-tagged human MAO-A expressed in baculovirus infected sf9 cells at 1 uM preincubated for 15 mins followed by luciferin derived substrate addition measured after 60 mins by luciferase reporter gene assay relative to control; conditions: probe luciferin derived substrate
T1 sequence (P21397 whole entry): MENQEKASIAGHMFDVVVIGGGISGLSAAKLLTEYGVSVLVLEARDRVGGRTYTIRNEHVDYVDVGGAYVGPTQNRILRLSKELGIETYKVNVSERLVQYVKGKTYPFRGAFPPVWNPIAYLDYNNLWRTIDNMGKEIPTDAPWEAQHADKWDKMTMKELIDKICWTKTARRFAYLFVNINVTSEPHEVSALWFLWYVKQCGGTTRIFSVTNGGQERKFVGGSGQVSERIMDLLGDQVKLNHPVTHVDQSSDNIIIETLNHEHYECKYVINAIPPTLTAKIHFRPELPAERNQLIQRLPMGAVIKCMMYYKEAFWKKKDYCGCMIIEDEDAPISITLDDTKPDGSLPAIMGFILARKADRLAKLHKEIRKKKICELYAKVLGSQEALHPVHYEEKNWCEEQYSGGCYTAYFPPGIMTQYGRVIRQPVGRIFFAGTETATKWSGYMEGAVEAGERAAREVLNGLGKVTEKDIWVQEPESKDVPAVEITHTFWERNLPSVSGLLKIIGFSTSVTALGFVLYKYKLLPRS

[8] = molecular target: T2, MAO-B (Homo sapiens, UniProt P27338); assay: Inhibition of full length recombinant FLAG-tagged human MAO-B expressed in baculovirus infected sf9 cells at 1 uM preincubated for 15 mins followed by luciferin derived substrate addition measured after 60 mins by luciferase reporter gene assay relative to control; conditions: probe luciferin derived substrate
T2 sequence (P27338 whole entry): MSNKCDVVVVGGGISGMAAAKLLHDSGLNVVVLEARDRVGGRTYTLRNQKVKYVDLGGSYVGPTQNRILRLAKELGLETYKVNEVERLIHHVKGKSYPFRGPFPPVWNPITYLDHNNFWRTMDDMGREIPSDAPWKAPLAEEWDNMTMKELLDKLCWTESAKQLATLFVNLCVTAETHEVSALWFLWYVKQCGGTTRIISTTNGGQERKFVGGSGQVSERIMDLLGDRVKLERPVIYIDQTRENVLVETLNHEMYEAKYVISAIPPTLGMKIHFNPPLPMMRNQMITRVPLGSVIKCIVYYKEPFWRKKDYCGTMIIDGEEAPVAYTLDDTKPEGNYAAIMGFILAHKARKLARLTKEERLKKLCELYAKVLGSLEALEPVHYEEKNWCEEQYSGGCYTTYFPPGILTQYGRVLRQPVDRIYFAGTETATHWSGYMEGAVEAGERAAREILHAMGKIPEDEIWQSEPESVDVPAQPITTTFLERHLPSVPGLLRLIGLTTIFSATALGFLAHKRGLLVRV

[9] = molecular target: T1, MAO-A; assay: Inhibition of full length recombinant FLAG-tagged human MAO-A expressed in baculovirus infected sf9 cells at 0.1 uM preincubated for 15 mins followed by luciferin derived substrate addition measured after 60 mins by luciferase reporter gene assay relative to control; conditions: probe luciferin derived substrate
[10] = molecular target: T2, MAO-B; assay: Inhibition of full length recombinant FLAG-tagged human MAO-B expressed in baculovirus infected sf9 cells at 0.1 uM preincubated for 15 mins followed by luciferin derived substrate addition measured after 60 mins by luciferase reporter gene assay relative to control; conditions: probe luciferin derived substrate

Sequence of Indoleamine 2,3-dioxygenase 1 (P14902 whole entry): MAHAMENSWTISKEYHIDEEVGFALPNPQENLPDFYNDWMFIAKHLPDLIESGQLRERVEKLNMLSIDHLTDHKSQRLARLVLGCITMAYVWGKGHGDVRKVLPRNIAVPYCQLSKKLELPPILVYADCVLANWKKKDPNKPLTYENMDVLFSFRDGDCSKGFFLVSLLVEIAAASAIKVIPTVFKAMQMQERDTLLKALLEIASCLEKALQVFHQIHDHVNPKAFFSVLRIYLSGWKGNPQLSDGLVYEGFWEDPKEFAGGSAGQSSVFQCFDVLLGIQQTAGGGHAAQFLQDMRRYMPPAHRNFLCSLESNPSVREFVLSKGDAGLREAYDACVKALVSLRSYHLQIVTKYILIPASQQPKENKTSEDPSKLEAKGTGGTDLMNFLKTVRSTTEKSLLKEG

pIC50 [1]	pIC50 [2]	pIC50 [3]	inhibition [5]	pIC50 [6]	inhibition at 1 h, 1 µM [7]	inhibition at 1 h, 1 µM [8]	inhibition at 1 h, 0.1 µM [9]	inhibition at 1 h, 0.1 µM [10]	SMILES	Ratio IC50 [4]
4.85	6.16	5.69	49%	4.01	–	–	–	–	CCCn1c(SCc2ccc(F)cc2)nc2c1c(=O)[nH]c(=O)n2C	2 - 3
5.19	–	–	–	–	–	–	–	–	CCCn1c(S)nc2c1c(=O)[nH]c(=O)n2C	–
5.05	5.61	5.30	52%	4.01	20%	61%	9%	16%	CCCn1c(SCc2cccc(C)c2)nc2c1c(=O)[nH]c(=O)n2C	2 - 3
4.59	–	–	–	–	–	–	–	–	CCCn1c(SCc2ccc(Cl)cc2)nc2c1c(=O)[nH]c(=O)n2C	–
